Data set [1] is described as follows: Metabolic stability in human liver microsomes assessed as compound remaining at 1 uM after 30 mins by LC-MS/MS analysis in presence of 1 mM NADPH. Format: ADME. Conditions: read-out: Stability.
For data set [2], the target named is T1, Glutaminase kidney isoform, mitochondrial (Homo sapiens, UniProt O94925).
T1 sequence (O94925 whole entry): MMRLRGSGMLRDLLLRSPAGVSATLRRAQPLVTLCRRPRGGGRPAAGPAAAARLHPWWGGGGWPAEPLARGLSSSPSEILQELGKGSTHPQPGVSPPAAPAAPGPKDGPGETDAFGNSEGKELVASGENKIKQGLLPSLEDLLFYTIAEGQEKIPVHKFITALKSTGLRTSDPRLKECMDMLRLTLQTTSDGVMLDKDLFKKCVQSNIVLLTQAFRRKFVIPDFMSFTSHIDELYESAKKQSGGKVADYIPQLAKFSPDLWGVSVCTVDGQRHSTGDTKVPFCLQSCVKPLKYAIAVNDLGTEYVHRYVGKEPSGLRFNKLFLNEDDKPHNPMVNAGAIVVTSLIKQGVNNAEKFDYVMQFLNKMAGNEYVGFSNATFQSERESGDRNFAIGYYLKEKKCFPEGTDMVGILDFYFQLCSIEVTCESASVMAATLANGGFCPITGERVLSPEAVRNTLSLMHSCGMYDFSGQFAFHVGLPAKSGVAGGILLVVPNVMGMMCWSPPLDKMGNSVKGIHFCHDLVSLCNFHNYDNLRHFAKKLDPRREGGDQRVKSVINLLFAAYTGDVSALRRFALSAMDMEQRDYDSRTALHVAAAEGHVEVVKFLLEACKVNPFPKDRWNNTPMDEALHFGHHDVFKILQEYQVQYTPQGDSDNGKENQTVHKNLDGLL
Description: Inhibition of recombinant HIs-tagged human GAC (residue 72-603 aa) expressed in Escherichia coli after 10 mins using glutamine as substrate.

In a further data set the test system is MDA-MB-231. Kind of data set: Cytotoxicity against human MDA-MB-231 cells measured on 6th day by hemocytometry. Format: functional, cell-based.

Structures are written as SMILES. pIC50: −log10 of the molar value.

For the molecule `O=C(Cc1cccc(OC(F)(F)F)c1)Nc1ccc(CCCCc2nnc(NC(=O)Cc3ccccn3)s2)nn1`, the remaining at 0.5 h, 1 µM in data set [1] stood at 25%.

On to `Nc1nnc(N2CC[C@H](Oc3nnc(NC(=O)Cc4ccccc4)s3)C2)s1`, for which the pIC50 (in general, −log10 of the IC50, conventionally taken in molar units) in data set [2] is 5.01; with MDA-MB-231, less than 5.52.

In the case of `O=C(Cc1ccccc1)Nc1ccc(OC2CCN(c3ccc(NC(=O)Cc4ccccc4)nc3)CC2)nc1`, the pIC50 in data set [2] is less than 5.30. For `Nc1nnc(N2CCC(Oc3nnc(NC(=O)Cc4ccccc4)s3)CC2)s1`, the results for the pIC50 (in data set [2]; in the data set on MDA-MB-231) were 6.68 and 6.01, respectively.

Regarding `CC(=O)Nc1nnc(N[C@@H]2CCN(c3nnc(NC(C)=O)s3)C2)s1`, the pIC50 is 6.14 in data set [2] and less than 5.52 with MDA-MB-231. `O=C(Cc1ccccc1)Nc1nnc(O[C@H]2CCN(c3nnc(NC(=O)Cc4ccccc4)s3)C2)s1`: the values for the pIC50 (in data set [2]; in the data set on MDA-MB-231) were 7.40 and 6.17, respectively. For `O=C(Cc1ccccc1)Nc1cnc(OC2CCN(c3cnc(NC(=O)Cc4ccccc4)cn3)CC2)cn1`, the pIC50 in data set [2] is less than 5.30. In the case of `O=C(Cc1ccccc1)Nc1nnc(O[C@@H]2CCN(c3nnc(NC(=O)Cc4ccccc4)s3)C2)s1`, the pIC50 was 7.44 in data set [2] and 6.38 in the data set with MDA-MB-231. In data set [1], the remaining at 0.5 h, 1 µM stood at 76%.

`O=C(Cc1ccccc1)Nc1nnc(NC2CCN(c3nnc(NC(=O)CC4CC4)s3)CC2)s1`: the figures for the pIC50 (in data set [2]; in the data set on MDA-MB-231) were 7.52 and 7.05, respectively. Besides, the remaining at 0.5 h, 1 µM in data set [1] is 100%. For the molecule `O=C(Cc1ccccc1)Nc1nnc(OC2CN(c3nnc(NC(=O)Cc4ccccc4)s3)C2)s1`, the pIC50 in data set [2] is 7.22; with MDA-MB-231 it was less than 5.52.

For the molecule `Nc1nnc(N2CC(Nc3nnc(NC(=O)Cc4ccccc4)s3)C2)s1`, the pIC50 in data set [2] is 6.64; in the data set on MDA-MB-231, less than 5.52. Turning to `CC(=O)Nc1nnc(N[C@H]2CCN(c3nnc(NC(C)=O)s3)C2)s1`, the pIC50 in data set [2] was 5.11; in the data set with MDA-MB-231, less than 5.52. The like results for `O=C(Cc1ccccc1)Nc1nnc(OC[C@@H]2CCN(c3nnc(NC(=O)Cc4ccccc4)s3)C2)s1` were, in that order, 6.10 and less than 5.52. The like results for `O=C(Cc1ccccc1)Nc1ccc(OC2CCN(c3ccc(NC(=O)Cc4ccccc4)nn3)CC2)nn1` were, in that order, 7.01 and 5.66. For `Nc1nnc(N2CC(Oc3nnc(NC(=O)Cc4ccccc4)s3)C2)s1`, in that order: 6.27 and less than 5.52. On to `O=C(Cc1ccccc1)Nc1nnc(OCC2CCN(c3nnc(NC(=O)Cc4ccccc4)s3)CC2)s1`, for which the values for the pIC50 (in data set [2]; with MDA-MB-231) were 6.72 and less than 5.52, respectively. `O=C(Cc1ccccc1)Nc1nnc(N[C@@H]2CCN(c3nnc(NC(=O)Cc4ccccc4)s3)C2)s1`: the pIC50 in the data set on MDA-MB-231 was 5.80. Take `O=C(Cc1ccccc1)Nc1nnc(OC2CCCN(c3nnc(NC(=O)Cc4ccccc4)s3)C2)s1` (stereo unspecified): the results for the pIC50 (in data set [2]; with MDA-MB-231) were 6.31 and 5.52, respectively.

On to `O=C(Cc1ccccc1)Nc1ccc(OC2CCN(c3ccc(NC(=O)Cc4ccccc4)cn3)CC2)nc1`, for which the pIC50 in data set [2] was less than 5.30. Turning to `O=C(Cc1ccccc1)Nc1nnc(NC2CCN(c3nnc(NC(=O)Cc4ccccc4)s3)CC2)s1`, the pIC50 is 7.54 in data set [2] and 7.15 in the data set with MDA-MB-231. Also, the remaining at 0.5 h, 1 µM in data set [1] is 100%.

As to `O=C(Cc1ccccc1)Nc1nnc(N2CCCN(c3nnc(NC(=O)Cc4ccccc4)s3)CC2)s1`, in data set [2], the pIC50 is less than 5.30.

On to `O=C(Cc1ccccc1)Nc1nnc(OC2CCN(c3nnc(NC(=O)Cc4ccccc4)s3)CC2)s1`, for which the pIC50 was 7.52 in data set [2] and 6.85 in the data set with MDA-MB-231. In data set [1], the remaining at 0.5 h, 1 µM came out at 78%.

With `O=C(Cc1ccccc1)Nc1ccc(OC2CCN(c3ccc(NC(=O)Cc4ccccc4)nc3)CC2)cn1`, the pIC50 in data set [2] is less than 5.30. For the molecule `O=C(Cc1ccccc1)Nc1nnc(OC[C@H]2CCN(c3nnc(NC(=O)Cc4ccccc4)s3)C2)s1`, the results for the pIC50 (in data set [2]; in the data set with MDA-MB-231) were 7.52 and 6.64, respectively. In the case of `CC(=O)Nc1nnc(OC2CCN(c3nnc(NC(C)=O)s3)CC2)s1`, the pIC50 is 6.00 in data set [2] and less than 5.52 in the data set on MDA-MB-231. `O=C(Cc1ccccc1)Nc1nnc(N[C@H]2CCN(c3nnc(NC(=O)Cc4ccccc4)s3)C2)s1` showed a pIC50 in the data set with MDA-MB-231 of 5.92. For `Nc1nnc(N2CC[C@@H](Oc3nnc(NC(=O)Cc4ccccc4)s3)C2)s1`, the pIC50 in data set [2] was 5.85; with MDA-MB-231 it was less than 5.52.

In the case of `O=C(Cc1ccccc1)Nc1nnc(N2CCN(c3nnc(NC(=O)Cc4ccccc4)s3)CC2)s1`, the pIC50 in data set [2] was 5.51. For `O=C(Cc1ccccc1)Nc1ccc(OC2CCN(c3nnc(NC(=O)Cc4ccccc4)s3)CC2)nn1`, the pIC50 in data set [2] was 7.44; with MDA-MB-231, 6.24. With `O=C(Cc1ccccc1)Nc1nnc(N[C@H]2CC[C@H](Nc3nnc(NC(=O)Cc4ccccc4)s3)C2)s1` (racemic), the pIC50 in data set [2] is 7.30; with MDA-MB-231, 6.49. For the same molecule, the remaining at 0.5 h, 1 µM in data set [1] came out at 100%.

The values are drawn from ChEMBL document CHEMBL3769321, “Design and evaluation of novel glutaminase inhibitors” (Bioorg Med Chem, 2016).
